From patent US6620828B2, “Thiazole compounds and pharmaceutical compositions for inhibiting protein kinases and methods for their use” (Agouron Pharmaceuticals, Inc., priority 1999, dated 2003)

The molecules below were run against T1, FL-CHK1 (Homo sapiens, UniProt O14757) (assay: CHK1 assay). Details: Table A combinatorial examples; footnote b not given.
T1 construct: C-terminally His-tagged full-length human CHK1 (FL-CHK1); 6xHis (C); made in house; host or cells: baculovirus/insect cells
T1 sequence (O14757 1-476): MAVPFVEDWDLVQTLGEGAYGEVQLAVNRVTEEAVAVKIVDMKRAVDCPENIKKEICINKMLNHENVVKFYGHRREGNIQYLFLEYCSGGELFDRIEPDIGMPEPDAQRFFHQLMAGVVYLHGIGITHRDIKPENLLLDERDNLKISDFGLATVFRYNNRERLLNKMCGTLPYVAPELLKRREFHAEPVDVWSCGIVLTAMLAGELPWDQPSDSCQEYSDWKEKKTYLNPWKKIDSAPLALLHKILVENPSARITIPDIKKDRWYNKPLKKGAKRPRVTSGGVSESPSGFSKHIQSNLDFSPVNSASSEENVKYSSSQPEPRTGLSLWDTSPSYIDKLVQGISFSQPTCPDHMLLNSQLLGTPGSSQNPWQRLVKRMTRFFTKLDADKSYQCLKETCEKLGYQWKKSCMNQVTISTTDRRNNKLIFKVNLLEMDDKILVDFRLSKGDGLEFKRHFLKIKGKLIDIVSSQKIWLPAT
Type: biochemical
Parameters: CHK1^b: unit not given here
Text: CHK-1 Construct for Assay: C-terminally His-tagged full-length human CHK1 (FL-CHK1) was expressed using the baculovirus/insect cell system. It contains 6 histidine residues (6×His-tag) at the C-terminus of the 476 amino acid human CHK1. The protein was purified by conventional chromatographic techniques.
The production of ADP from ATP that accompanies phosphoryl transfer to the synthetic substrate peptide Syntide-2 ([…]) was coupled to oxidation of NADH using phosphoenolpyruvate (PEP) through the actions of pyruvate kinase (PK) and lactic dehydrogenase (LDH). The oxidation of NADH was monitored by following the decrease of absorbance at 340 nm (ε340=6.22 cm^−1 mM^−1) using a HP8452 spectrophotometer. Typical reaction solutions contained: […]; 0.15 mM NADH; 28 units of LDH/ml; 16 units of PK/ml; 3 mM DTT; 0.125 mM Syntide-2; 0.15 mM ATP; 25 mM MgCl2 in 50 mM TRIS, pH 7.5; and 400 mM NaCl. Assays were initiated with 10 nM of FL-CHK1. Ki values were determined by measuring initial enzyme activity in the presence of varying concentrations of test compounds. The data were analyzed using Enzyme Kinetic and Kaleidagraph software.
For `COc1cc(Nc2nc(N)c(-c3nc(-c4csc5ccccc45)cs3)s2)cc(OC)c1OC`, the “CHK1^b” value was 13.2.
With `COc1cc(Nc2nc(N)c(-c3nc(-c4cc(C(C)(C)C)c(O)c(C(C)(C)C)c4)cs3)s2)cc(OC)c1OC` the “CHK1^b” value was 25.3.
`COc1cc(Nc2nc(N)c(-c3nc(-c4cc(F)c(C)c(Cl)c4)cs3)s2)cc(OC)c1OC` was tested, and the “CHK1^b” value was 30.9.
`COc1ccc(-c2csc(-c3sc(Nc4cc(OC)c(OC)c(OC)c4)nc3N)n2)cc1` [drawing 336] was tested, and the “CHK1^b” value was 15.3.
In the case of `COc1cc(Nc2nc(N)c(-c3nc(-c4cc(Br)c(Cl)s4)cs3)s2)cc(OC)c1OC`, the “CHK1^b” value is reported as 32.
With `CCOC(=O)c1cc(-c2csc(-c3sc(Nc4cc(OC)c(OC)c(OC)c4)nc3N)n2)on1` the “CHK1^b” value was 2.7.
In the case of `CCCCCc1ccc(-c2csc(-c3sc(Nc4cc(OC)c(OC)c(OC)c4)nc3N)n2)cc1`, the “CHK1^b” value is reported as 8.9.
`COc1cc(Nc2nc(N)c(-c3nc(-c4ccccc4OC(C)=O)cs3)s2)cc(OC)c1OC` was tested, and the “CHK1^b” value was −7.4.
In the case of `COc1ccc(-c2csc(-c3sc(Nc4cc(OC)c(OC)c(OC)c4)nc3N)n2)c(OC)c1`, the “CHK1^b” value is reported as 9.9.
With `COc1cc(Nc2nc(N)c(-c3nc(-c4cc(-c5ccc(Cl)c(Cl)c5)no4)cs3)s2)cc(OC)c1OC` the “CHK1^b” value was 0.9.
In the case of `COc1cc(Nc2nc(N)c(-c3nc(-c4ccc(-c5ccccc5)cc4)cs3)s2)cc(OC)c1OC`, the “CHK1^b” value is reported as 18.7.
For `COc1cc(Nc2nc(N)c(-c3nc(-c4ccc([N+](=O)[O-])cc4)cs3)s2)cc(OC)c1OC`, the “CHK1^b” value was 15.2.
In the case of `COc1cc(Nc2nc(N)c(-c3nc(-c4sc5ccccc5c4C)cs3)s2)cc2c1OCCO2`, the “CHK1^b” value is reported as 4.7.
For `COc1cc(Nc2nc(N)c(-c3nc(-c4ccc(C)cc4C)cs3)s2)cc(OC)c1OC`, the “CHK1^b” value was 12.
With `COc1cc(Nc2nc(N)c(-c3nc(-c4ccc(Cl)cc4Cl)cs3)s2)cc(OC)c1OC` the “CHK1^b” value was 31.3.
`COc1cc(Nc2nc(N)c(-c3nc(-c4ccc(-c5ccc(Cl)cc5Cl)o4)cs3)s2)cc(OC)c1OC` was tested, and the “CHK1^b” value was 23.
In the case of `COc1cc(Nc2nc(N)c(-c3nc(-c4ccc[nH]4)cs3)s2)cc(OC)c1OC`, the “CHK1^b” value is reported as 31.3.
With `COc1cc(Nc2nc(N)c(-c3nc(-c4c(Cl)cc(C(F)(F)F)cc4Cl)cs3)s2)cc(OC)c1OC` the “CHK1^b” value was 26.2.
`COc1cc(OC)c(-c2csc(-c3sc(Nc4cc(OC)c(OC)c(OC)c4)nc3N)n2)c(O)c1Cl` was tested, and the “CHK1^b” value was 56.
With `COc1cc(Nc2nc(N)c(-c3nc(-c4ccc(C)cc4)cs3)s2)cc(OC)c1OC` the “CHK1^b” value was 3.7.
In the case of `COc1cc(Nc2nc(N)c(-c3nc(-c4cc5cc(Cl)ccc5o4)cs3)s2)cc2c1OCCO2`, the “CHK1^b” value is reported as 25.4.
For `COc1cc(Nc2nc(N)c(-c3nc(-c4sc5ccc(Cl)cc5c4C)cs3)s2)cc2c1OCCO2` [drawing 363], the “CHK1^b” value was 38.1.

The molecules below were run against CDK2/Cyclin A complex (Homo sapiens, UniProt P24941) (assay: CDK2/Cyclin A assay). Details: Table A combinatorial examples; footnote c not given.
Type: biochemical
Parameters: CDK2^c: concentration or dose not given beside the values
Text: CDK2/Cyclin A Construct for Assay: CDK2 was purified using published methodology (Rosenblatt et al., J. Mol. Biol., 230, 1317-1319 (1993)) from insect cells that had been infected with a baculovirus expression vector. Cyclin A was purified from E. coli cells expressing full-length recombinant cyclin A, and a truncated cyclin A construct was generated by limited proteolysis and purified as described previously (Jeffrey et al., Nature, 376, 313-320 (Jul. 27, 1995)).
CDK2/Cyclin A and CDK4/Cyclin D Assays
Cyclin-dependent kinase activity was measured by quantifying the enzyme-catalyzed, time-dependent incorporation of radioactive phosphate from [^32P]ATP into a recombinant fragment of the retinoblastoma protein. Unless noted otherwise, assays were performed in 96-well plates in a total volume of 50 μL, in the presence of 10 mM HEPES (N-[2-hydroxyethyl]piperazine-N′-[2-ethanesulfonic acid]) (pH 7.4), 10 mM MgCl2, 25 μM adenosine triphosphate (ATP), 1 mg/mL ovalbumin, 5 μg/mL leupeptin, 1 mM dithiothreitol, 10 mM β-glycerophosphate, 0.1 mM sodium vanadate, 1 mM sodium fluoride, 2.5 mM ethylene glycol-bis(β-aminoethyl ether)-N,N,N′N′-tetraacetic acid (EGTA), 2% (v/v) dimethylsulfoxide, and 0.03-0.2 μCi [^32P]ATP. The substrate (0.3-0.5 μg) was purified recombinant retinoblastoma protein fragment (Rb) (residues 386-928 of the native retinoblastoma protein; 62.3 kDa, containing the majority of the phosphorylation sites found in the native 106-kDa protein, as well as a tag of six histidine residues for ease of purification). Reactions were initiated with CDK2 (150 nM CDK2/Cyclin A complex) or CDK4 (50 nM CDK4/Cyclin D3 complex), incubated at 30° C., and terminated after 20 minutes by the addition of ethylenediaminetetraacetic acid EDTA) to 250 mM. The phosphorylated substrate was then captured on a nitrocellulose membrane using a 96-well filtration manifold, and unincorporated radioactivity was removed by repeated washing with 0.85% phosphoric acid. Radioactivity was quantified by exposing the dried nitrocellulose membranes to a phosphorimager. Apparent Ki values were measured by assaying enzyme activity in the presence of different compound concentrations and subtracting the background radioactivity measured in the absence of enzyme. The kinetic parameters (kcat, Km for ATP) were measured for each enzyme under the usual assay conditions by determining the dependence of initial rates on ATP concentration. The data were fit to an equation for competitive inhibition using Kaleidagraph (Synergy Software), or were fit to an equation for competitive tight-binding inhibition using the software KineTic (BioKin, Ltd.). Measured Ki values for known inhibitors against CDK4 and CDK2 agreed with published IC50 values. The specific activity of CDK4 was the same whether complexed to full-length cyclin D3 or the truncated Cyclin D3 construct; both complexes also yielded very similar Ki values for selected inhibitors.
For `COc1cc(Nc2nc(N)c(-c3nc(-c4csc5ccccc45)cs3)s2)cc(OC)c1OC`, the “CDK2^c” value was 9.1.
With `COc1cc(Nc2nc(N)c(-c3nc(-c4cc(C(C)(C)C)c(O)c(C(C)(C)C)c4)cs3)s2)cc(OC)c1OC` the “CDK2^c” value was 5.3.
`COc1cc(Nc2nc(N)c(-c3nc(-c4cc(F)c(C)c(Cl)c4)cs3)s2)cc(OC)c1OC` was tested, and the “CDK2^c” value was −7.5.
`COc1ccc(-c2csc(-c3sc(Nc4cc(OC)c(OC)c(OC)c4)nc3N)n2)cc1` [drawing 336] was tested, and the “CDK2^c” value was −13.
With `COc1cc(Nc2nc(N)c(-c3nc(-c4cc(Br)c(Cl)s4)cs3)s2)cc(OC)c1OC` the “CDK2^c” value was −0.2.
`CCOC(=O)c1cc(-c2csc(-c3sc(Nc4cc(OC)c(OC)c(OC)c4)nc3N)n2)on1` was tested, and the “CDK2^c” value was 23.2.
`CCCCCc1ccc(-c2csc(-c3sc(Nc4cc(OC)c(OC)c(OC)c4)nc3N)n2)cc1` was tested, and the “CDK2^c” value was 11.3.
With `COc1cc(Nc2nc(N)c(-c3nc(-c4ccccc4OC(C)=O)cs3)s2)cc(OC)c1OC` the “CDK2^c” value was 1.6.
`COc1ccc(-c2csc(-c3sc(Nc4cc(OC)c(OC)c(OC)c4)nc3N)n2)c(OC)c1` was tested, and the “CDK2^c” value was 4.9.
With `COc1cc(Nc2nc(N)c(-c3nc(-c4cc(-c5ccc(Cl)c(Cl)c5)no4)cs3)s2)cc(OC)c1OC` the “CDK2^c” value was 17.5.
With `COc1cc(Nc2nc(N)c(-c3nc(-c4ccc(-c5ccccc5)cc4)cs3)s2)cc(OC)c1OC` the “CDK2^c” value was 20.4.
`COc1cc(Nc2nc(N)c(-c3nc(-c4ccc([N+](=O)[O-])cc4)cs3)s2)cc(OC)c1OC` was tested, and the “CDK2^c” value was −14.4.
With `COc1cc(Nc2nc(N)c(-c3nc(-c4sc5ccccc5c4C)cs3)s2)cc2c1OCCO2` the “CDK2^c” value was 23.1.
With `COc1cc(Nc2nc(N)c(-c3nc(-c4ccc(C)cc4C)cs3)s2)cc(OC)c1OC` the “CDK2^c” value was −1.2.
In the case of `COc1cc(Nc2nc(N)c(-c3nc(-c4ccc(Cl)cc4Cl)cs3)s2)cc(OC)c1OC`, the “CDK2^c” value is reported as 3.8.
For `COc1cc(Nc2nc(N)c(-c3nc(-c4ccc(-c5ccc(Cl)cc5Cl)o4)cs3)s2)cc(OC)c1OC`, the “CDK2^c” value was 12.4.
`COc1cc(Nc2nc(N)c(-c3nc(-c4ccc[nH]4)cs3)s2)cc(OC)c1OC` was tested, and the “CDK2^c” value was 14.3.
`COc1cc(Nc2nc(N)c(-c3nc(-c4c(Cl)cc(C(F)(F)F)cc4Cl)cs3)s2)cc(OC)c1OC` was tested, and the “CDK2^c” value was −6.
For `COc1cc(OC)c(-c2csc(-c3sc(Nc4cc(OC)c(OC)c(OC)c4)nc3N)n2)c(O)c1Cl`, the “CDK2^c” value was 11.8.
With `COc1cc(Nc2nc(N)c(-c3nc(-c4ccc(C)cc4)cs3)s2)cc(OC)c1OC` the “CDK2^c” value was −2.1.
For `COc1cc(Nc2nc(N)c(-c3nc(-c4cc5cc(Cl)ccc5o4)cs3)s2)cc2c1OCCO2`, the “CDK2^c” value was −6.
In the case of `COc1cc(Nc2nc(N)c(-c3nc(-c4sc5ccc(Cl)cc5c4C)cs3)s2)cc2c1OCCO2` [drawing 363], the “CDK2^c” value is reported as 12.
